PubChem BioAssay (NCI)
“And” between values parts separate entries of the source, which are not always exact repeats. Equal values may be shown once.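 Five compound concentrations were applied to cells in 96-well plates for 48 hours; endpoints were derived by simple linear interpolation of the resulting dose-response curve. GI50: concentration for 50% inhibition of growth. TGI marks complete inhibition of growth.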

Tests used:
Experiment in all cases: NCI anticancer screen, dose series, 48 h
[1] = tested on: OVCAR-5 ovarian
[2] = tested on: EKVX NSCLC
[3] = tested on: CCRF-CEM leukemia
[4] = tested on: HOP-62 NSCLC
[5] = tested on: NCI/ADR-RES ovarian
[6] = tested on: MOLT-4 leukemia
[7] = tested on: CAKI-1 renal
[8] = tested on: BT-549 breast
[9] = tested on: 786-0 renal
[10] = tested on: SNB-19 CNS
[11] = tested on: SR leukemia
[12] = tested on: K-562 leukemia
[13] = tested on: PC-3 prostate
[14] = tested on: SW-620 colon
[15] = tested on: OVCAR-3 ovarian
[16] = tested on: COLO 205 colon
[17] = tested on: UACC-62 melanoma
[18] = tested on: M14 melanoma
[19] = tested on: UACC-257 melanoma
[20] = tested on: MDA-MB-468 breast
[21] = tested on: U251 CNS
[22] = tested on: HOP-92 NSCLC
[23] = tested on: HCT-116 colon
[24] = tested on: HCC-2998 colon
[25] = tested on: SK-MEL-5 melanoma
[26] = tested on: ACHN renal
[27] = tested on: HCT-15 colon
[28] = tested on: SK-OV-3 ovarian
[29] = tested on: NCI-H23 lung
[30] = tested on: DU-145 prostate
[31] = tested on: LOX IMVI melanoma
[32] = tested on: HL-60(TB) leukemia
[33] = tested on: MALME-3M melanoma
[34] = tested on: SF-268 CNS
[35] = tested on: UO-31 renal
[36] = tested on: RPMI-8226 leukemia
[37] = tested on: SF-295 CNS
[38] = tested on: SF-539 CNS
[39] = tested on: IGROV1 ovarian
[40] = tested on: RXF 393 renal
[41] = tested on: OVCAR-8 ovarian
[42] = tested on: A549 NSCLC
[43] = tested on: OVCAR-4 ovarian
[44] = tested on: SN12C renal
[45] = tested on: MDA-MB-231 breast
[46] = tested on: T-47D breast
[47] = tested on: MCF7 breast
[48] = tested on: NCI-H460 lung
[49] = tested on: MDA-MB-435
[50] = tested on: NCI-H522 lung
[51] = tested on: HS 578T breast
[52] = tested on: A498 renal
[53] = tested on: NCI-H226 lung
[54] = tested on: TK-10 renal

`CC(C)C[C@H](NC(=O)[C@@H]1CCCCCCCCCCC(=O)N[C@@H](CC(=O)N2CCC[C@@H]2C2CCCC2)C(=O)N1)B(O)O` was tested, and the GI50 [1] was 0.00289 µM, the TGI [1] was 0.0119 µM and the GI50 [2] was 0.00925 µM and 0.0217 µM. For the same compound, the GI50 [3] was 0.00287 µM, the GI50 [4] was 0.00568 µM and the TGI [4] was 0.023 µM. It also gave a GI50 [5] of 1.97 µM, a TGI [5] of 5.9 µM and a GI50 [6] of 0.0034 µM. The TGI [6] was 8.48 µM, the GI50 [7] was 0.108 µM and 0.0526 µM and the TGI [7] was 3.35 µM. The GI50 [8] was 0.0014 µM, the TGI [8] was 0.00305 µM and the GI50 [9] was 0.0249 µM and 0.0218 µM. The TGI [9] was 0.173 µM and 0.168 µM, the GI50 [10] was 0.00367 µM and the GI50 [11] was 0.00381 µM. It also gave a TGI [11] greater than 100 µM, a GI50 [12] of 0.00456 µM and a TGI [12] greater than 100 µM. For the same compound, the GI50 [13] was 0.00461 µM, the TGI [13] was 0.0964 µM and 0.0593 µM and the GI50 [14] was 0.00409 µM. The TGI [14] was 0.042 µM and 0.0254 µM, the GI50 [15] was 0.00407 µM and the TGI [15] was 0.0168 µM. For the same compound, the GI50 [16] was 0.0045 µM, the TGI [16] was 0.0202 µM and 0.018 µM and the GI50 [17] was 0.00177 µM. For the same compound, the TGI [17] was 0.00356 µM, the GI50 [18] was 0.0055 µM and the TGI [18] was 0.0754 µM and 0.109 µM. The GI50 [19] was 0.00376 µM, the TGI [19] was 0.289 µM and 1.2 µM and the GI50 [20] was 0.00202 µM. For the same compound, the TGI [20] was 0.0044 µM, the GI50 [21] was 0.00392 µM and the TGI [21] was 0.0178 µM and 0.0729 µM. It also gave a GI50 [22] of 0.00223 µM, a TGI [22] of 0.00622 µM and a GI50 [23] of 0.0026 µM. The GI50 [24] was 0.00183 µM, the TGI [24] was 0.00332 µM and the GI50 [25] was 0.00177 µM. The TGI [25] was 0.00427 µM, the GI50 [26] was 0.0585 µM and 0.0259 µM and the TGI [26] was 5.94 µM. For the same compound, the GI50 [27] was 0.119 µM and 0.224 µM, the TGI [27] was 0.356 µM and 2.46 µM and the GI50 [28] was 0.00443 µM. The TGI [28] was 0.0236 µM and 0.0159 µM, the GI50 [29] was 0.00215 µM and the TGI [29] was 0.00511 µM. It also gave a GI50 [30] of 0.00846 µM, a TGI [30] of 37 µM and a GI50 [31] of 0.00175 µM. The TGI [31] was 0.00346 µM, the GI50 [32] was 0.0032 µM and the TGI [32] was 1.94 µM. For the same compound, the GI50 [33] was 0.00164 µM, the TGI [33] was 0.00371 µM and 0.0238 µM and the GI50 [34] was 0.00446 µM. For the same compound, the TGI [34] was 0.0466 µM, the GI50 [35] was 0.171 µM and 0.317 µM and the TGI [35] was 0.466 µM and 1.8 µM. For the same compound, the GI50 [36] was 0.00372 µM, the GI50 [37] was 0.00383 µM and the TGI [37] was 0.0145 µM. The GI50 [38] was 0.0018 µM, the TGI [38] was 0.00347 µM and the GI50 [39] was 0.00408 µM. The GI50 [40] was 0.00253 µM, the TGI [40] was 0.00628 µM and the GI50 [41] was 0.0222 µM and 0.0157 µM. For the same compound, the TGI [41] was 10.2 µM, the GI50 [42] was 0.00711 µM and the TGI [42] was 4.57 µM. For the same compound, the GI50 [43] was 0.00365 µM, the TGI [43] was 0.0169 µM and the GI50 [44] was 0.00215 µM. For the same compound, the TGI [44] was 0.00504 µM and 0.0113 µM, the GI50 [45] was 0.00187 µM and the TGI [45] was 0.00381 µM. For the same compound, the GI50 [46] was 0.00199 µM, the TGI [46] was 0.00529 µM and the GI50 [47] was 0.0037 µM. For the same compound, the GI50 [48] was 0.00862 µM, the TGI [48] was 0.0436 µM and 0.0405 µM and the GI50 [49] was 0.00257 µM. The TGI [49] was 0.00673 µM, the GI50 [50] was 0.00221 µM and the TGI [50] was 0.00566 µM. The GI50 [51] was 0.00422 µM, the TGI [51] was 0.094 µM and the GI50 [52] was 0.0216 µM and 0.0344 µM. For the same compound, the TGI [52] was 0.0982 µM and 0.18 µM, the GI50 [53] was 0.00397 µM and the TGI [53] was 0.0172 µM. For the same compound, the GI50 [54] was 0.041 µM and 0.0373 µM and the TGI [54] was 0.208 µM and 0.462 µM.
